In brackets after ≈: the same amount, converted by molar mass. Read-outs that look alike come from different tables or passages of the source.
Columns and labels:
E. faecium 1674620 (VRE) = experiment: MIC against resistant strains, Tables 5a-5d; format: cell-based; conditions: Enterococcus faecium, n = 3
Procedure: (§1) Compounds described herein were evaluated for growth inhibition against a variety of bacterial species, including strains that have developed resistance to common antibacterial treatments, according to the procedure described herein, or by analogous procedures known to those skilled in the art. Resistant bacterial strains used for compound testing include methicillin-resistant S. aureus (MRSA), vancomycin resistant Enterococci (VRE) and various multi-drug resistant (MDR) strains commonly associated with hospital-acquired (nosocomial) infections, including, but not limited to A. baumannii, K. pnuemoniae, and E. cloacae.

[1] = tested on: K. pneumoniae CDC0010 (MDR); experiment: MIC against resistant strains, Tables 5a-5d; format: cell-based; conditions: Klebsiella pneumoniae, n = 3
Procedure: as §1

[2] = tested on: S. aureus ATCC BAA-1717 (MRSA); experiment: MIC against resistant strains, Tables 5a-5d; format: cell-based; conditions: Staphylococcus aureus, n = 3
Procedure: as §1

[3] = tested on: S. aureus ATCC 33591 (MRSA); experiment: MIC against resistant strains, Tables 5a-5d; format: cell-based; conditions: Staphylococcus aureus, n = 3
Procedure: as §1

E. coli ATCC25922 (WT) = experiment: MIC against resistant strains, Tables 5a-5d; format: cell-based; conditions: Escherichia coli, n = 3
Procedure: as §1

[4] = tested on: E. cloacae 1744299 (ESBL); experiment: MIC against resistant strains, Tables 5a-5d; format: cell-based; conditions: Enterobacter cloacae, n = 3
Procedure: as §1

[5] = tested on: P. aeruginosa 1674623 (MDR); experiment: MIC against resistant strains, Tables 5a-5d; format: cell-based; conditions: Pseudomonas aeruginosa, n = 3
Procedure: as §1

[6] = tested on: K. pneumoniae ATCC BAA-2473 (MDR); experiment: MIC against resistant strains, Tables 5a-5d; format: cell-based; conditions: Klebsiella pneumoniae, ATCCBAA2473, n = 3
Procedure: as §1

[7] = tested on: A. baumannii CDC0290 (MDR); experiment: MIC against resistant strains, Tables 5a-5d; format: cell-based; conditions: Acinetobacter baumannii, n = 3
Procedure: as §1

[8] = tested on: A. baumannii 1674627 (MDR); experiment: MIC against resistant strains, Tables 5a-5d; format: cell-based; conditions: Acinetobacter baumannii, n = 3
Procedure: as §1

[9] = tested on: P. aeruginosa CDC0248 (MDR); experiment: MIC against resistant strains, Tables 5a-5d; format: cell-based; conditions: Pseudomonas aeruginosa, n = 3
Procedure: as §1

E. coli K12 (ATCC 47076) = experiment: MIC broth microdilution method, Table 3; conditions: Escherichia coli, ATCC47076
Cytotoxicity, MTT assay = format: cell-based
Procedure: (§2) Before removing the frozen cell stocks from liquid nitrogen, culture medium was pre-warmed to 37° C. The frozen tube was then removed from liquid nitrogen and placed into a 37° C. water bath and shaken gently to thaw the cell stock as quickly as possible. A small portion of the pre-warmed culture medium was added to the cell solution. The cell suspension was then centrifuged at 1000 r/min for 3 minutes. The supernatant was discarded and the cells were resuspended in fresh culture medium.
(§3) NIH 3T3 (ATCC CRL-1658) and Hep G2 (ATCC HB-8065) cells were cultured with DMEM+10% FBS in 100 mm dishes. Cells were lifted for subculture or testing when confluence reached ˜60% by treating with 1× trypsin (incubated for 3 min at 37° C.). J774 (ATCC TIB-67) cells were cultured with DMEM+10% FBS in 100 mm dishes. Cells were lifted for subculture or testing when confluence reached ˜80% using a cell scraper. RAW264.7 (ATCC TIB-71) cells were cultured with DMEM+10% heat-inactivated FBS+1% pen/strep in T75 flasks. Cells were lifted for subculture or testing when confluence reached ˜80% using a cell scraper.
(§4) • 1. Cells were lifted and resuspended in culture medium. The number of cells in the cell suspension was determined using an auto-cell counter: 10 μL of the cell suspension was mixed with 10 μL 1× trypan blue (filtered with 0.2 μm PES filter) and the mixture was loaded onto a cell counting slide. Based on the concentration of viable cells, the cell suspension was further diluted to achieve the desired density. • 2. Cells were seeded in 96 well plates by adding 100 μL final cell suspension column-by-column using a multichannel pipette (5000 cells/well for NIH 3T3, 10000 cells/well for Hep G2, J774 and RAW264.7). The outer wells were block with PBS to reduce the effects of evaporation. One column was filled with only culture medium as a blank. Cells were incubated overnight before adding the test articles. • 3. Test articles were dissolved in 1×PBS (or DMSO) to obtain stocks solution. Stock solutions were pre-warmed before use. […] Serial dilutions (2-fold) of the 10× solutions were made in sterile culture tubes by diluting in 1×PBS (8 dilutions to yield 9 test concentrations). 900 μL of culture media was added to each tube to obtain final drug solution containing 10% PBS (or less than 1% DMSO) for each experimental group. • 4. The original culture medium was gently removed from the 96-well plates using a pipette. 100 μL of the test article solutions prepared in Step 3 were added to rows 2-7 of each column to obtain six replicates for each concentration. Plates were then incubated for 24 hours. • 5. MTT solutions were prepared by dissolving commercial MTT powder in 1×PBS to a concentration of 5 mg/mL. After passing through a 0.22 μm PES filter, the MTT solution was divided into 1 mL portions in sterile centrifuge tubes and stored at −20° C. • 6. MTT stock solutions were removed from the freezer to thaw at room temperature. Before adding MTT solutions, cell cultures were visually inspected and imaged using a microscope (to use as a comparison with MTT results). 10 μL of the 5 mg/mL MTT solution was added to each well and the plate was incubated for 4 hours. • 7. After 4 h incubation, the culture medium/MT solution was removed gently using a pipette. 100 μL of DMSO was added to each well using a multichannel pipette. The 96-well plates were analyzed in a plate reader using the following method: shake for 5 minutes, wait for 30 seconds, and measure absorbance at 570 nm. • 8. Data processing: The average of background Abg was calculated from the blank column. All other data was first treated by subtracting Abg. The average A. and standard deviation Se of each experimental group and the average Ac and standard deviation Sc for control group (with pure culture medium incubation) were then calculated. The cell viability was determined as Ae/Ac×100% and corresponding error as Se/Ae×100%. Significant outliers in any experimental or control group were removed. […]

[10] = tested on: Hep G2 (ATCC HB-8065) cells; experiment: Cytotoxicity, MTT assay; format: cell-based; conditions: Hep G2, MTT, 24 hours incubation
Procedure: as §2, §3, §4

[11] = tested on: S. epidermidis (ATCC 14990); experiment: MIC broth microdilution method, Table 3; conditions: Staphylococcus epidermidis, ATCC14990
J774 (ATCC TIB-67) cells = experiment: Cytotoxicity, MTT assay; format: cell-based; conditions: Mus musculus, MTT, 24 hours incubation, read-out: IC50
Procedure: as §2, §3, §4

[12] = tested on: NIH 3T3 (ATCC CRL-1658) cells; experiment: Cytotoxicity, MTT assay; format: cell-based; conditions: Mus musculus, NIH3T3; NIH 3T3; MTT, 24 hours incubation; read-out: IC50
Procedure: as §2, §3, §4

[13] = tested on: K. aerogenes (ATCC 13048); experiment: MIC broth microdilution method, Table 3; conditions: Klebsiella aerogenes, ATCC13048
[14] = tested on: primary human hepatocytes; experiment: Cytotoxicity tested by Eurofins Pharma Discovery Services; format: cell-based; conditions: Hepatocyte, data provided by Eurofins, read-out: IC50
HRPTEpiC = experiment: as above; format: cell-based; conditions: data provided by Eurofins, read-out: IC50
Hep G2 cells = experiment: as above; format: cell-based; conditions: Homo sapiens, HepG2; Hep G2; data provided by Eurofins; read-out: IC50
[15] = Homo sapiens, HepG2, 24 h, read-out: IC50
[16] = human, Hep G2 (ATCC HB-8065) cells, Hep G2, at the concentration given as IC50 bound, read-out: cell viability at the highest or lowest test concentration

| SMILES | MIC (E. faecium 1674620 (VRE)) [µg/mL] | MIC [1] [µg/mL] | MIC [2] [µg/mL] | MIC [3] [µg/mL] | MIC (E. coli ATCC25922 (WT)) [µg/mL] | MIC [4] [µg/mL] | MIC [5] [µg/mL] | MIC [6] [µg/mL] | MIC [7] [µg/mL] | MIC [8] [µg/mL] | MIC [9] [µg/mL] | MIC (E. coli K12 (ATCC 47076)) [µg/mL] | IC50 [10, 15] [µg/mL] | MIC [11] [µg/mL] | viability at 24 h (Cytotoxicity, MTT assay; [16]) [%] | IC50 [12] [µg/mL] | MIC [13] [µg/mL] | other results |
| --- | --- | --- | --- | --- | --- | --- | --- | --- | --- | --- | --- | --- | --- | --- | --- | --- | --- | --- |
| CC[N+](C)(C)CCCCOc1cc(/C=C/c2ccc(/C=C/c3cc(OCCCC[N+](C)(C)CC)cc(OCCCC[N+](C)(C)CC)c3)cc2)cc(OCCCC[N+](C)(C)CC)c1.[I-].[I-].[I-].[I-] [Formula P] | 4 | 32 | 2 | 1 | 8 | 8 | > 64 | 16 | 64 | 64 | > 64 | 16 | – | – | – | – | – | – |
| CCCCCC[N+](C)(C)CCCOc1cc(/C=C/c2ccc(/C=C/c3cc(OCCC[N+](C)(C)CCCCCC)cc(OCCC[N+](C)(C)CCCCCC)c3)cc2)cc(OCCC[N+](C)(C)CCCCCC)c1 [Formula BB] | 0.25 | 2 | 1 | 2 | 2 | 2 | 16 | 2 | 2 | 2 | 32 | 8 | 15 | – | – | – | – | viability at 24 h (Cytotoxicity, MTT assay; human, Hep G2 (ATCC HB-8065) cells, Hep G2, at concentrations efficacious against bacterial species (0.25-4 μg/mL), read-out: cell viability): ~90%; IC50 [10]: 15.1 µg/mL |
| CCCCC[N+](C)(C)CCCCOc1cc(/C=C/c2ccc(/C=C/c3cc(OCCCC[N+](C)(C)CCCCC)cc(OCCCC[N+](C)(C)CCCCC)c3)cc2)cc(OCCCC[N+](C)(C)CCCCC)c1 [Formula S] | – | – | – | – | – | – | – | – | – | – | – | 4 | > 128 | 2 | 52 | 42.3 | 8 | IC50 (J774 (ATCC TIB-67) cells): 22.6 µg/mL |
| CO/N=C(\C(=O)N[C@@H]1C(=O)N2C(C(=O)[O-])=C(C[n+]3cccc4c3CCC4)CS[C@H]12)c1csc(N)n1 [Cefpirome, reference compound] | – | – | – | – | – | – | – | – | – | – | – | 0.0625 (≈ 0.121 µM) | > 128 | 1 (≈ 1.94 µM) | 101 | > 128 | 0.25 (≈ 0.486 µM) | viability at 24 h (Cytotoxicity, MTT assay; mouse, J774 (ATCC TIB-67) cells, at the concentration given as IC50 bound, read-out: cell viability at the highest or lowest test concentration): 107%; viability at 24 h (Cytotoxicity, MTT assay; mouse, NIH 3T3 (ATCC CRL-1658) cells, NIH 3T3, at the concentration given as IC50 bound, read-out: cell viability at the highest or lowest test concentration): 81%; IC50 (J774 (ATCC TIB-67) cells): > 128 µg/mL |
| CCC[N+](C)(C)CCCCOc1cc(/C=C/c2ccc(/C=C/c3cc(OCCCC[N+](C)(C)CCC)cc(OCCCC[N+](C)(C)CCC)c3)cc2)cc(OCCCC[N+](C)(C)CCC)c1 [Formula Q] | 1 | 32 | 1 | 1 | 4 | 4 | > 64 | 8 | 64 | 64 | > 64 | 8 | > 128 | – | 91 | – | – | – |
| CCCC[N+](C)(C)CCOc1cc(/C=C/c2ccc(/C=C/c3cc(OCC[N+](C)(C)CCCC)cc(OCC[N+](C)(C)CCCC)c3)cc2)cc(OCC[N+](C)(C)CCCC)c1.[I-].[I-].[I-].[I-] [Formula G] | 1 | 16 | 2 | 1 | 1 | 4 | 64 | 4 | 32 | 32 | 64 | 4 | 889 | – | – | – | – | – |
| C[N+](C)(C)CCCCCCOc1cc(/C=C/c2ccc(/C=C/c3ccc(/C=C/c4cc(OCCCCCC[N+](C)(C)C)cc(OCCCCCC[N+](C)(C)C)c4)cc3)cc2)cc(OCCCCCC[N+](C)(C)C)c1 [Formula TT] | – | – | – | – | – | – | – | – | – | – | – | > 256 | > 128 | 4 | 70 | 69.3 | > 128 | IC50 [14]: 102 µg/mL; IC50 (HRPTEpiC): 6.3 µg/mL; IC50 (Hep G2 cells): 94.6 µg/mL |
